In PMC10989073, “Antineoplastic effect of compounds C14 and P8 on TNBC and radioresistant TNBC cells by stabilizing the K-Ras4B^G13D/PDE6δ complex” (Frontiers in Oncology, 2024):

Legend:
MDA-MB-231 cells [1] = experiment: Clonogenic assay; type: cell-based, human; details: MDA-MB-231, 10 to 12 days; C14 and P8 at IC50-48, cisplatin 100 µM, doxorubicin 0.5 µM
Method: (§1) The principal aim of a clonogenic assay is to evaluate the effect of chemotherapy agents or new drugs by the measurement of their ability to arrest tumor cell division and their ability to develop new colonies after their exposure to these new drugs ([56]). Therefore, the colony formation ability of the cell lines MCF-10A, MDA-MB-231, and MDA-MB-231RR was evaluated after their exposure to the C14 and P8 compounds. In brief, breast cancer cell lines were cultured in 6-well plates (Corning), seeding 300 cells per well, and incubated at 37°C in 5% CO2 for 24 h. Compounds C14 and P8 were added at the maximum evaluated concentration IC50-48. As controls, cells without treatment and cells treated in the presence of a vehicle (DMSO at 0.66%) were employed (Sigma-Aldrich). […] After 10 days of treatment, cells were fixed with 4% PFA and stained with 0.1% crystal violet in citric acid (Sigma-Aldrich) for 15 minutes. Subsequently, the dye present in the cells was extracted using isopropanol and read at 570 nm in a Synergy-HTX microplate reader (BioTek). Each test was performed in triplicate. Data were expressed as % colonies relative to the untreated control ([56]).

MDA-MB-231RR cells [2] = experiment: Clonogenic assay; type: cell-based, human; details: for reduction in colony formation: 10 to 12 days, C14 and P8 at IC50-48, cisplatin 100 µM, doxorubicin 0.5 µM
Method: as §1

[3] = system: Ras-GTP in MDA-MB-231 cells; experiment: Ras activation pull-down assay (Raf-RBD); type: cell-based, human; details: MDA-MB-231, 3 h pre-treatment at IC50-48H, EGF 100 ng/ml 10 min
Method: (§2) Subsequently, the cells were stimulated with epidermal growth factor (EGF) (100 ng/ml) for 10 minutes. Lysates (1 mg/ml) were exposed to Ras GTP-binding protein (Raf-RBD), following the manufacturer’s instructions. Experiments for each cell type and condition were repeated three times.

[4] = system: Ras-GTP in MDA-MB-231RR cells; experiment: Ras activation pull-down assay (Raf-RBD); type: cell-based, human; details: 3 h pre-treatment at IC50-48H, EGF 100 ng/ml 10 min
Method: as §2

MDA-MB-231 cells [5] = experiment: Cell cycle analysis (propidium iodide, flow cytometry); type: cell-based, human; details: MDA-MB-231, 3 h at IC50-48H; control 10.0%
Method: (§3) After 3-h incubation, cells were harvested, washed twice in ice-cold PBS, and fixed overnight in 70% ethanol at 4°C. Then, cells were washed in PBS, collected by centrifugation, and stained with staining buffer (PBS with 50 µg/ml propidium iodide and 100 µg/ml RNase A).

MDA-MB-231RR cells [6] = experiment: as above; type: cell-based, human; details: 3 h at IC50-48H, control 35.6%
Method: as §3

[7] = Body weight and survival of xenograft mice under treatment; type: in vivo
Method: Female immune-deficient Nu/Nu nude mice at 6–8 weeks of age ([…], Mexico City, Mexico) were maintained in pathogen-free conditions with irradiated chow. […] Body weight and tumor volume were measured every third day. Tumor sizes were calculated using the formula [(length × width2)/2] in mm.

[8] = system: MDA-MB-231RR xenograft tumors; experiment: Immunohistochemistry and digital pathology of xenograft tumors; type: in vivo, Nu/Nu nude mice; details: for expression of CD31 (IHC) / mitotic index (H&E staining): MDA-MB-231RR xenograft tumors; for PCNA expression (IHC, digital pathology) / VEGF expression (IHC, digital pathology) / cyclin D1 expression (IHC, digital pathology): MDA-MB-231RR xenograft tumors after treatment; for mitotic index (H&E staining): compared to the control group
Method: To determine the impact of C14 and P8 drugs on tumor inhibition, angiogenic, and cell cycle markers in a xenograft model, immunohistochemical assays and digital pathological analysis were conducted. For tissue preparation, 4-µm-thick tumor sections underwent a series of preparations: i) deparaffinization in xylene, ii) antigen retrieval in a sodium citrate buffer at pH 6, iii) blocking of endogenous peroxidase activity using a 10% hydrogen peroxide solution, and iv) non-specific binding blockade for 1 h. For the antibody incubation, the tumor sections were incubated with primary antibodies: Anti-Cyclin D1 (Abcam), Anti-PCNA (Abcam), Anti-CD31 (Abcam), Anti-VEGF (Abcam) at a 1:500 dilution.
The incubation with primary antibodies occurred at room temperature overnight. Subsequently, secondary antibody incubation was conducted. Then, the sections were incubated with horseradish peroxidase (HRP)-conjugated secondary antibody for 30 minutes. Finally, visualization and staining were performed using a diaminobenzidine (DAB) detection system from Vector Laboratories, Inc. (Burlingame, CA, USA). Counterstaining was performed using hematoxylin.
For the mitotic index evaluation, hematoxylin and eosin (H&E) staining was conducted to calculate the mitotic index. From each H&E-stained tumor tissue, 10 random fields were captured at ×40 magnification, and the number of mitotic figures was counted. The average count was used to calculate the mitotic index using the following formula: Mitotic index = Number of mitoses/10.
For digital pathology analysis, the immunohistochemistry (IHC)-stained sections were digitized using an Aperio ScanScope CS2 from Leica Biosystems (Nussloch, Germany), which generated high-resolution ×20 digital images (0.45 µm/pixel). These images were analyzed using ImageScope (Aperio, San Diego, CA, USA) to quantify marker expression. Then, a quantification algorithm was developed for each tissue to assess total and nuclear protein expression. The ImageScope allowed setting thresholds for color saturation and defining upper and lower limits for intensities of weak, moderate, and strong positive pixels. Lastly, the raw data encompassed the number of positive pixels and the intensity of positive pixels, which were normalized to the number of total pixels counted in µm^2. Data were presented as total density per µm^2.

SMILES | reduction in colony formation (MDA-MB-231 cells [1]) | reduction in colony formation (MDA-MB-231RR cells [2]) | colonies persisted (MDA-MB-231RR cells [2]; C14 at IC50-48) [%] | reduction in Ras-GTP levels [3] | decrease in Ras-GTP levels [4] | percentage of cells in G2/M (MDA-MB-231 cells [5]) [%] | percentage of cells in S phase (MDA-MB-231RR cells [6]) [%] | tolerability (weight loss, overall survival) ([7]; mouse, in vivo, ip, 30 mg/kg) | expression of CD31 (IHC) [8] | PCNA expression (IHC, digital pathology) [8] [μm^2] | VEGF expression (IHC, digital pathology) [8] | cyclin D1 expression (IHC, digital pathology) [8] [μm^2] | mitotic index (H&E staining) [8] | tolerability (weight loss, overall survival) ([7]; Nu/Nu mice, 30 mg/kg i.p. daily) | survival of mice ([7]; Nu/Nu mice, cisplatin 6 mg/kg i.p. daily) [days] | weight decrease ([7]; Nu/Nu mice, cisplatin 6 mg/kg i.p. daily, within the first 5 days of treatment) [%]
CN(CC(=O)NC1CCOc2ccccc21)Cc1cccc(Cl)c1 (centres unmarked) [C14, 2-[(3-chlorophenyl)-methyl-methyl-amino]-N-croman-4-yl-acetamide] | up to 95% | up to 90% | ~10 | 20% | approximately 20% | 6.4 | 20.7 | well tolerated | decreased | 10 | 100 μm^2 | 8 | lower | – | – | –
O=C(CN1CCN(c2cccc(Cl)c2)CC1)N[C@@H]1CCOc2ccccc21 [P8, 2-[4-(3-chlorophenyl)piperazin-1-yl]-N-[(4R)-chroman-4-yl]acetamide] | up to 95% | up to 99% | – | over 80% | over 60% | 8.2 | 26.4 | – | decreased | 18 | 3,000 μm^2 | 20 | lower | well tolerated | – | –
N.N.[Cl][Pt][Cl] [Cisplatin, cisplatin, reference compound] | significant reduction | 99% | – | – | – | – | – | – | – | 22 | 3,000 μm^2 | 25 | – | – | ≤ 6 | > 20
